The results in this text go back to patent US11912668B2, “GCN2 and perk kinase inhibitors and methods of use thereof” (Deciphera Pharmaceuticals, LLC, priority 2020, dated 2024).

One test deals with PERK kinase (Homo sapiens (Human), UniProt Q9NZJ5). The test is described as follows: Biochemical assay for PERK (coupled pyruvate kinase/lactate dehydrogenase assay). Particulars: 1 mM ATP, rate from 2-3 h time frame. In short, it runs like this:
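Coupled pyruvate kinase/lactate dehydrogenase readout of ATP hydrolysis via NADH oxidation (A340), 10 nM PERK, 0.25 mg/mL myelin basic protein, 1 mM ATP, pH 7.5 Tris/MgCl2 buffer, 1% DMSO. Absorbance followed 6 h at 30° C; rate from the 2-3 h window, normalised to no-compound and known-inhibitor controls, IC50 fitted.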

The test system of test [1] is MV-4-11 acute myeloid leukemia xenograft. The test is described as follows: MV-4-11 xenograft efficacy model. The note with it: 25 mg/kg/day orally for 14 days in combination with Leunase 1000 U/kg. It counts as in vivo, mice. Here is the method:
The MV-4-11 acute myeloid leukemia xenograft model was performed in compliance with all the laws, regulations, and guidelines of the National Institutes of Health (NIH) and with the approval of the Animal Care and Use Committee of Crown Bioscience (Taicang, China), an AAALAC accredited facility. Food and water were provided ad libitum. […] Female NOD/SCID (6-9 weeks old; Vital River Laboratories Research Models and Services (Beijing, China)) were inoculated subcutaneously right front flank region with five million cells in Dulbecco's Phosphate Buffered Saline:Matrigel (1:1), using a 27-gauge needle and syringe. When tumor burdens reached 150 mm^3 on average on day 7, mice were randomly assigned into groups such that the mean tumor burden for all groups was within 10% of the overall mean tumor burden for the study population. Groups were treated on days 7-21 as follows: vehicle control (dosed orally and IP to mimic combination group (n=10); Compound 16 dosed orally at 25 mg/kg/day (n=10); Leunase (Kyowa Kirin, Japan) dosed IP at 1000 U/kg/day (n=10); Leunase (Kyowa Kirin, Japan) dosed IP at 1000 U/kg/day (n=10) and Compound 16 dosed orally at 25 mg/kg/day (n=10). Tumor volume and body weight were measured three times per week. Tumor burden (mg) was estimated from caliper measurements by the formula: tumor burden (mg=mm^3)=(length×width^2)/2.

For another test, the system named is CCRF-CEM leukemia cells. Description: CCRF-CEM ASNase cell proliferation assay, phenotypic assay for cellular inhibition of GCN2. Type of test: cell-based. Particulars: Homo sapiens; ASNase treated CCRF-CEM cells, 1 mU/mL ASNase, 72 h. In short, it runs like this:
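Cells were seeded at ten thousand per well in RPMI-1640 with 10% heat-inactivated FBS and treated in triplicate with serially diluted compound plus 1 mU/mL ASNase for 72 h at 37 °C, 5% CO2. Resazurin was then added for 6 h, with fluorescence read at ex 540/em 600 nm to derive IC50 values.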

For test [2], the system named is ATF4 in H929 multiple myeloma cells. Description: H929 ATF4 ELISA assay (stimulation of cellular ATF4). Type of test: cell-based. The note with it: 4 h, no thapsigargin. The method, then:
H929 multiple myeloma cells (catalog #CRL-9068) were obtained from the American Type Culture Collection (ATTC, Manassas, VA). Briefly, cells were grown in RPMI-1640 medium supplemented with 20% heat-inactivated fetal bovine serum (catalog #A3840002, ThermoFisher Scientific, Waltham, MA), 1% Penicillin/Streptomycin/L-Glutamine (catalog #10378016, ThermoFisher Scientific, Waltham, MA), and 0.05 mM 2-mercaptoethanol (catalog #21985-023, ThermoFisher Scientific, Waltham, MA) at 37° C., 5% CO2, and 95% humidity. Cells were expanded until reaching one million five hundred thousand cells per mL at which time they were subcultured or harvested for assay use. One million five hundred thousand cells per well in 1 mL complete growth medium were dispensed into 12-well plates and incubated overnight. A serial dilution of test compound was added, and cells were incubated at 37° C., 5% CO2, and 95% for four hours. Cells were lysed then ATF4 levels were measured using an ELISA assay (Proteintech, Rosemont, IL). Absorbance is measured at 450 nm and 544 nM using a Synergy2 or equivalent reader (Biotek, Winooski VT). Data were analyzed using PRISM software (Graphpad, San Diego, CA) to calculate fold stimulation of cellular ATF4 relative to vehicle treated control.
A general note: An ELISA detects its analyte on a solid surface through an enzyme-linked reagent.

Chain of PERK kinase (Q9NZJ5 other isoform, or with tags, fused parts or gaps): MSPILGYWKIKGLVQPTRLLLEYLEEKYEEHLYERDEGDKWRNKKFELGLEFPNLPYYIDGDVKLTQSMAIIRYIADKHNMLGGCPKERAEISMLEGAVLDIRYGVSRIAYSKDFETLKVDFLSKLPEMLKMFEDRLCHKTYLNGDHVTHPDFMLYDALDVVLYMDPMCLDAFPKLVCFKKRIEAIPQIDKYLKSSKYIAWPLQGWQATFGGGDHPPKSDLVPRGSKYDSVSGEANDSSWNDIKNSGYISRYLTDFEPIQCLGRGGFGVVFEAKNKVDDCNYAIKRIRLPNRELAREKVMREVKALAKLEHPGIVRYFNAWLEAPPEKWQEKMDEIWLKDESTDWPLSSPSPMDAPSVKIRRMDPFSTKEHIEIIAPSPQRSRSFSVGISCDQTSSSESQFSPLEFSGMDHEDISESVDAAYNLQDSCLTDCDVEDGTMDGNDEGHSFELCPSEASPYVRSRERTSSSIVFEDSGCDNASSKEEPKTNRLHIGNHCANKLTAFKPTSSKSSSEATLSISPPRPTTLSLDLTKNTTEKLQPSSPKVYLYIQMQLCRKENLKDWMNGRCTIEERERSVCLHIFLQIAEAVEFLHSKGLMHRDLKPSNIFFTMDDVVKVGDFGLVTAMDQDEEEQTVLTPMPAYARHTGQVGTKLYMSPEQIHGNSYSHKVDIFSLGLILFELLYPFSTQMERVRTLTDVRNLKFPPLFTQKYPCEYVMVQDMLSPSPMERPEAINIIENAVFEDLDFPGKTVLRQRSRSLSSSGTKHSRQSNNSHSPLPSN

Regarding `CNc1ncc2cc(-c3cccc(NS(=O)(=O)c4cc(Cl)cnc4OC)c3F)c(NC)nc2n1` [Compound 16], the IC50 against PERK kinase is 100 to 500 nM; in the test on CCRF-CEM leukemia cells, at most 100 nM. For the same molecule, the “effect on MV-4-11 tumor growth” value in test [1] is listed as “tumor regression”. Besides, the “H929 NS ATF4 ELISA (fold stimulation of ATF4 relative to vehicle)” value in test [2] is “+++ (“+++” refers to an ATF4 stim greater than 10 fold and less than or equal to 20 fold)”.

In general, IC50 refers to the point on the concentration scale where inhibition reaches its midpoint.
